Values after ≈ are worked out from the molar mass of the structure shown. Blank lines part the entries; values can stand above or below the molecule they belong to.
Columns and labels:
Test in all cases: ≥ marks a high value that may be exact or a test limit, other limits are often not marked, values filed in µg/mL are converted to µM
[1] = test system: Candida albicans NCYC 1467
[2] = test system: Escherichia coli NCTC 10418
[3] = test system: Pseudomonas aeruginosa ATCC 27853
[4] = test system: Staphylococcus aureus NCTC 10788
[5] = test system: Staphylococcus aureus NCTC 12493
[6] = test system: Bacillus subtilis 168
[7] = test system: Candida albicans F7-39/IDE99
[8] = test system: Escherichia coli B
[9] = test system: Pseudomonas aeruginosa
[10] = test system: Staphylococcus aureus
[11] = test system: Bacillus subtilis
[12] = test system: Escherichia coli
[13] = test system: Candida albicans ATCC 2002
[14] = test system: Escherichia coli ATCC 25922
[15] = test system: Pseudomonas aeruginosa CMCCB 10104
[16] = test system: Staphylococcus aureus ATCC 25923
[17] = test system: Escherichia coli JM109
[18] = test system: Staphylococcus aureus ATCC 6538P
[19] = test system: Escherichia coli W160-37
[20] = test system: Enterococcus faecalis ATCC 29212
[21] = test system: Salmonella enterica subsp. enterica serovar Pullorum C79-13
[22] = test system: Salmonella enterica subsp. enterica serovar Typhimurium C77-31
[23] = test system: Staphylococcus aureus ATCC 29213
[24] = test system: Staphylococcus epidermidis ATCC 12228
[25] = test system: Acinetobacter baumannii
[26] = test system: Escherichia coli UB1005

Structure (SMILES): CC[C@H](C)[C@H](NC(=O)CNC(=O)[C@@H](NC(=O)[C@H](C)NC(=O)[C@@H](NC(=O)[C@H](CCCCN)NC(=O)[C@@H]1CCCN1C(=O)[C@@H](NC(=O)[C@H](CC(C)C)NC(=O)[C@H](CO)NC(=O)[C@H](CC(C)C)NC(=O)[C@@H](N)Cc1ccccc1)[C@@H](C)CC)[C@@H](C)CC)[C@@H](C)O)C(=O)N[C@@H](C)C(=O)N[C@@H](C)C(=O)N[C@@H](CC(C)C)C(=O)N[C@@H](C)C(=O)N[C@@H](CCCCN)C(=O)N[C@@H](Cc1cnc[nH]1)C(=O)N[C@@H](CC(C)C)C(N)=O [FLSLIPKIATGIAALAKHL]
MIC [1]: 2 µM (≈ 3.95 µg/mL) | MIC [2]: 8 µM (≈ 15.8 µg/mL) | MIC [3]: 32 µM (≈ 63.2 µg/mL) | MIC [4]: 2 µM (≈ 3.95 µg/mL) | MIC [5]: 2 µM (≈ 3.95 µg/mL)

Structure (SMILES): CC[C@H](C)[C@H](NC(=O)[C@H](CC(C)C)NC(=O)[C@H](CCCCN)NC(=O)[C@H](C)NC(=O)[C@H](C)NC(=O)CNC(=O)[C@H](CCCCN)NC(=O)[C@@H](NC(=O)[C@H](CC(C)C)NC(=O)[C@@H](NC(=O)[C@H](Cc1ccccc1)NC(=O)[C@H](CC(C)C)NC(=O)CN)[C@@H](C)O)[C@@H](C)CC)C(=O)NCC(=O)N[C@@H](CCCCN)C(=O)N[C@H](C(=O)N[C@H](C(=O)N[C@@H](C)C(=O)N[C@@H](CCCCN)C(=O)N[C@@H](CCC(=O)O)C(=O)N[C@@H](C)C(=O)NCC(=O)N[C@@H](CCCCN)C(=O)N[C@H](C(=O)NCC(=O)N[C@@H](CCCCN)C(=O)N[C@@H](CC(C)C)C(=O)N[C@@H](CCC(=O)O)C(=O)N[C@@H](CCSC)C(=O)N[C@@H](C)C(=O)N[C@H]1CSSC[C@@H](C(=O)O)NC(=O)[C@H](CCC(N)=O)NC(=O)[C@H](CC(N)=O)NC(=O)[C@H]([C@@H](C)O)NC(=O)[C@H]([C@@H](C)CC)NC(=O)[C@H](CCCCN)NC1=O)[C@@H](C)O)[C@@H](C)O)[C@@H](C)O [GLFTLIKGAAKLIGKTTAKEAGKTGKLEMACKITNQC]
MIC [13]: 1.15 µM (≈ 4.4 µg/mL) | MIC [14]: 1.15 µM (≈ 4.4 µg/mL) | MIC [15]: 0.573 µM (≈ 2.2 µg/mL) | MIC [16]: 0.573 µM (≈ 2.2 µg/mL)

Structure (SMILES): CC[C@H](C)[C@H](NC(=O)[C@H](CC(C)C)NC(=O)[C@H](CCC(N)=O)NC(=O)[C@@H](NC(=O)[C@H](C)NC(=O)CNC(=O)[C@H](CCCCN)NC(=O)[C@H](CC(C)C)NC(=O)[C@H](CC(C)C)NC(=O)[C@@H](NC(=O)[C@H](Cc1ccccc1)NC(=O)[C@@H](NC(=O)CN)C(C)C)[C@@H](C)O)[C@@H](C)O)C(=O)NCC(=O)N[C@@H](CCCCN)C(=O)N[C@H](C(=O)N[C@@H](CC(C)C)C(=O)NCC(=O)N[C@@H](CCCCN)C(=O)N[C@@H](CCC(=O)O)C(=O)N[C@@H](CC(C)C)C(=O)NCC(=O)N[C@@H](CCCCN)C(=O)N[C@H](C(=O)NCC(=O)N[C@@H](CC(C)C)C(=O)N[C@@H](CCC(=O)O)C(=O)N[C@@H](CC(C)C)C(=O)N[C@@H](CCSC)C(=O)N[C@@H](C)C(=O)N[C@H]1CSSC[C@@H](C(=O)O)NC(=O)[C@H](CCC(N)=O)NC(=O)[C@H](CC(N)=O)NC(=O)[C@H]([C@@H](C)O)NC(=O)[C@H]([C@@H](C)CC)NC(=O)[C@H](CCCCN)NC1=O)[C@@H](C)O)[C@@H](C)O [GVFTLLKGATQLIGKTLGKELGKTGLELMACKITNQC]
MIC [13]: 4.07 µM (≈ 15.8 µg/mL) | MIC [14]: 2.04 µM (≈ 7.9 µg/mL) | MIC [15]: 2.04 µM (≈ 7.9 µg/mL) | MIC [16]: 2.04 µM (≈ 7.9 µg/mL)

Structure (SMILES): CC[C@H](C)[C@H](N)C(=O)N[C@H](C(=O)N[C@@H](CO)C(=O)N[C@H](C(=O)N[C@H](C(=O)NCC(=O)N[C@@H](CCCCN)C(=O)N[C@@H](CC(C)C)C(=O)N[C@H](C(=O)N[C@@H](CCCCN)C(=O)N[C@@H](Cc1c[nH]c2ccccc12)C(=O)N[C@H](C(=O)N[C@H](C(=O)N[C@@H](CC(=O)O)C(=O)N[C@H](C(=O)N[C@H](C(=O)O)C(C)C)[C@@H](C)O)[C@@H](C)CC)[C@@H](C)CC)C(C)C)[C@@H](C)CC)[C@@H](C)O)[C@@H](C)CC [IISTIGKLVKWIIDTV]
MIC [19]: 8 µM (≈ 14.4 µg/mL) | MIC [10]: 18.8 µM (≈ 33.8 µg/mL)

Structure (SMILES): CC[C@H](C)[C@H](N)C(=O)N[C@@H](CC(C)C)C(=O)N1CCC[C@H]1C(=O)N[C@@H](Cc1c[nH]c2ccccc12)C(=O)N[C@@H](CCCCN)C(=O)N[C@@H](Cc1c[nH]c2ccccc12)C(=O)N1CCC[C@H]1C(=O)N[C@@H](Cc1ccccc1)C(=O)N[C@@H](Cc1ccccc1)C(=O)N1CCC[C@H]1C(=O)N[C@@H](Cc1c[nH]c2ccccc12)C(=O)N[C@@H](CCCN=C(N)N)C(=O)N[C@@H](CCCN=C(N)N)C(N)=O [ILPWKWPFFPWRR]
MIC [17]: 2 µM (≈ 3.66 µg/mL)

Structure (SMILES): NCCCC[C@H](NC(=O)CNC(=O)[C@H](CC(N)=O)NC(=O)[C@H](CCC(=O)O)NC(=O)[C@H](Cc1c[nH]c2ccccc12)NC(=O)[C@H](CCCCN)NC(=O)[C@H](Cc1c[nH]c2ccccc12)NC(=O)[C@H](CCCCN)NC(=O)[C@@H](N)Cc1c[nH]c2ccccc12)C(=O)N[C@@H](Cc1c[nH]c2ccccc12)C(=O)N[C@@H](CCCCN)C(=O)N[C@@H](Cc1c[nH]c2ccccc12)C(=O)N[C@@H](CCC(N)=O)C(=O)N[C@@H](Cc1c[nH]c2ccccc12)C(=O)O [WKWKWENGKWKWQW]
MIC [20]: > 128 µM | MIC [14]: 32 µM (≈ 66.4 µg/mL) | MIC [21]: 16 µM (≈ 33.2 µg/mL) | MIC [22]: ≥ 64 µM | MIC [23]: > 128 µM | MIC [24]: > 128 µM

Next, values leading:

MIC [6]: 0.9 µM (≈ 1.29 µg/mL) | MIC [7]: 8.7 µM (≈ 12.5 µg/mL) | MIC [8]: 1.8 µM (≈ 2.58 µg/mL) | MIC [9]: 31.7 µM (≈ 45.5 µg/mL) | MIC [10]: 5.5 µM (≈ 7.89 µg/mL)
Structure (SMILES): CC[C@H](C)[C@H](NC(=O)[C@H](Cc1cnc[nH]1)NC(=O)[C@H](CCCCN)NC(=O)[C@H](CC(C)C)NC(=O)[C@H](CC(C)C)NC(=O)[C@H](CO)NC(=O)[C@H](CC(C)C)NC(=O)[C@H](Cc1c[nH]c2ccccc12)NC(=O)[C@H](CCCCN)NC(=O)CN)C(=O)N[C@@H](CC(C)C)C(=O)N[C@@H](CCCCN)C(N)=O [GKWLSLLKHILK]

MIC [11]: 0.6 µM (≈ 0.905 µg/mL) | MIC [7]: 5.3 µM (≈ 7.99 µg/mL) | MIC [12]: 1.6 µM (≈ 2.41 µg/mL) | MIC [9]: 50 µM (≈ 75.4 µg/mL) | MIC [10]: 4.7 µM (≈ 7.09 µg/mL)
Structure (SMILES): CC[C@H](C)[C@H](NC(=O)[C@H](Cc1cnc[nH]1)NC(=O)[C@H](CCCCN)NC(=O)[C@H](CC(C)C)NC(=O)[C@H](CC(C)C)NC(=O)[C@H](CO)NC(=O)[C@H](Cc1c[nH]c2ccccc12)NC(=O)[C@H](Cc1c[nH]c2ccccc12)NC(=O)[C@H](CCCCN)NC(=O)CN)C(=O)N[C@@H](CC(C)C)C(=O)N[C@@H](CCCCN)C(N)=O [GKWWSLLKHILK]

MIC [17]: 25.9 µM | MIC [18]: 9.73 µM | MIC [10]: > 69.2 µM
Structure (SMILES): CC[C@H](C)[C@H](NC(=O)[C@H](C)NC(=O)[C@H](CC(C)C)NC(=O)[C@H](CS)NC(=O)[C@@H](N)Cc1cnc[nH]1)C(=O)NCC(=O)N[C@@H](CCCN=C(N)N)C(=O)N[C@@H](CCCN=C(N)N)C(N)=O [HCLAIGRR]

MIC [25]: 8 µM (≈ 14 µg/mL) | MIC [14]: 4 µM (≈ 7.02 µg/mL) | MIC [26]: 2 µM (≈ 3.51 µg/mL) | MIC [12]: 4 µM (≈ 7.02 µg/mL) | MIC [9]: 32 µM (≈ 56.2 µg/mL) | MIC [22]: 4 µM (≈ 7.02 µg/mL) | MIC [16]: 4 µM (≈ 7.02 µg/mL) | MIC [23]: 2 µM (≈ 3.51 µg/mL) | MIC [10]: 4 µM (≈ 7.02 µg/mL) | MIC [24]: 4 µM (≈ 7.02 µg/mL)
Structure (SMILES): CC(C)[C@H](NC(=O)[C@H](CCCN=C(N)N)NC(=O)[C@H](Cc1c[nH]c2ccccc12)NC(=O)[C@H](CCCN=C(N)N)NC(=O)[C@@H](NC(=O)[C@H](CCCCN)NC(=O)[C@H](Cc1c[nH]c2ccccc12)NC(=O)[C@H](CCCN=C(N)N)NC(=O)[C@@H](NC(=O)[C@H](CCCN=C(N)N)NC(=O)[C@@H](N)Cc1c[nH]c2ccccc12)C(C)C)[C@@H](C)O)C(=O)N[C@@H](CCCCN)C(N)=O [WRVRWKTRWRVK]

From DBAASP
